# Measurements published in ChEMBL document CHEMBL1201862, “PubChem BioAssay data set” (2004).
# The source made the active and inactive calls. Square brackets hold non-standard residues; d marks the D form. Peptide text beside a SMILES is read from it. * marks the point of attachment. ξ: configuration not given here. Cbz = O=C(OCc1ccccc1)*; OBn = c1ccc(CO*)cc1; ξP = O=C(O)C1CCCN1
# What was measured:
# Cytochrome P450 2D6 = Cytochrome P450 2D6 (Homo sapiens, UniProt P10635);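 further: CYP2D6 member of a cytochrome P450 panel assay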
# [1] = Luminescence Cell-Based Dose Confirmation HTS to Identify Activators of 5'UTR Stem-Loop Driven Alpha-Synuclein mRNA Translation in H4 Neuroglioblastoma Cells. [Related pubchem assays: 1829 (Project Summary), 1814 (Primary HTS)]; assay type: functional
# [2] = Luminescence Cell-Based Dose Response HTS to Identify Activators of Luciferase Translation or Activity in H4 […] Cells. [Related pubchem assays: 1829 (Project Summary), 1814 (Primary HTS)]; assay type: functional
# H4 = experiment: Luminescence Cell-Based Dose Response HTS to Identify Activators of 5'UTR Stem-Loop Driven Prion Protein mRNA Translation in H4 Neuroglioblastoma Cells. [Related pubchem assays: 1829 (Project Summary), 1814 (Primary HTS)]; assay type: functional; conditions: Homo sapiens
# Cytochrome P450 2C19 = Cytochrome P450 2C19 (Homo sapiens, UniProt P33261); experiment: Cytochrome panel assay with activity outcomes. Panel member name: p450-cyp2c19 Compounds with AC50 equal or less than 10 uM are considered active; assay type: functional
# [3] = NIH-3T3 fibroblast cytotoxicity, dose response, cytotoxicity control, cell-based, fluorescence, Alamar Blue, secondary assay (AID 2327); assay type: functional;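 further: NIH-3T3 mouse fibroblasts cultured with fluconazole at 8 µg/mL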
# [4] = C. albicans growth with fluconazole, confirmation, fluorescence, retest (AID 2467); assay type: functional, cell-based
# Cytochrome P450 1A2 = target: T1, Cytochrome P450 1A2 (Homo sapiens, UniProt P05177);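 further: PubChem cytochrome P450 panel assay, CYP1A2 panel member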
# T1 sequence (P05177 whole entry): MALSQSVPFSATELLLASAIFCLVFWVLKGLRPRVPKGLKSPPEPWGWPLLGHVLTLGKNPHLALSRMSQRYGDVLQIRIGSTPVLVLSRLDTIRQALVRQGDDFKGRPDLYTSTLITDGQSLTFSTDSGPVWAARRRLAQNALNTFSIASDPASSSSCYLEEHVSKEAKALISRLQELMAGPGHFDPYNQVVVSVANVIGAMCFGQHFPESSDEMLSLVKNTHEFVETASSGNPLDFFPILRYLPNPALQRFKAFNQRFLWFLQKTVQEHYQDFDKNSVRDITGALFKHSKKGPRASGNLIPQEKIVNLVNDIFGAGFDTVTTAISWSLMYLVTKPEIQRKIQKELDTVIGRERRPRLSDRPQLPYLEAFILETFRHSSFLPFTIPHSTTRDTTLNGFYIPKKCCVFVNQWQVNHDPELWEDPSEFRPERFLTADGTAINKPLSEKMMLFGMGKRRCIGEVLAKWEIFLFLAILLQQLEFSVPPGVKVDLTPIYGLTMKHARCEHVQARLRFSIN
# Cytochrome P450 3A4 = Cytochrome P450 3A4 (Homo sapiens, UniProt P08684);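 further: CYP3A4 tested as one member of a cytochrome P450 panel screen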
# [5] = target: T2, Corticotropin-releasing factor receptor 2/Corticotropin-releasing factor-binding protein (Homo sapiens, UniProt P24387+Q13324); experiment: Dose Response confirmation of uHTS hits for small molecule antagonists of the CRF-binding protein and CRF-R2 receptor complex.; assay type: functional; conditions: read-out: IC50_Mean
# T2 sequence (Q13324 whole entry): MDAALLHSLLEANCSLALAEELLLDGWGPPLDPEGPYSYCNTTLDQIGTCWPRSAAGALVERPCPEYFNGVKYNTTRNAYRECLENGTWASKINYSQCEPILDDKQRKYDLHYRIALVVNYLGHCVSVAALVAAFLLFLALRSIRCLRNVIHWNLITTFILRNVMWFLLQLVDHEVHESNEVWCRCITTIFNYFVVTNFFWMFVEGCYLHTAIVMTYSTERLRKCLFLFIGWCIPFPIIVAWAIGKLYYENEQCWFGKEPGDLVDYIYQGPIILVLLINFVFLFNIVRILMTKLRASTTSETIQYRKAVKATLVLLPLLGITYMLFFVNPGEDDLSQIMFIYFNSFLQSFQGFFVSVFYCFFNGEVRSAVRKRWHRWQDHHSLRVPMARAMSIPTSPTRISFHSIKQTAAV
# T2 sequence (P24387 whole entry): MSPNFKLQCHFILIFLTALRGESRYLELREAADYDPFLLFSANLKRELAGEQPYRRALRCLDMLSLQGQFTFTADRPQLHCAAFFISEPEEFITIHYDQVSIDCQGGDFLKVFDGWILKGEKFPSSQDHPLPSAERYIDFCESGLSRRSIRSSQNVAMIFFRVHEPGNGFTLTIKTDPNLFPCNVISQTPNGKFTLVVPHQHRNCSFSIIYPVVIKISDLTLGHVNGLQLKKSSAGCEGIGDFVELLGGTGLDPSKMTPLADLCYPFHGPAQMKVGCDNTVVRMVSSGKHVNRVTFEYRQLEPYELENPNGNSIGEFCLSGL
# [6] = target: T2, Corticotropin-releasing factor receptor 2/Corticotropin-releasing factor-binding protein; experiment: activators of CRF receptor 2 with binding protein – uHTS hits, confirmation (AID 602473); assay type: functional; conditions: read-out: EC50_Mean
# [7] = system: Streptococcus sp. 'group A'; experiment: growth inhibition of control SK(-) GAS strain, dose response, counter-screen for streptokinase expression inhibitor project, luminescence, kanamycin, BacTiterGlo, confirmation (AID 1900); assay type: functional, organism-based
# Streptococcus = experiment: Group A Streptococcus viability loss, dose response, counter-screen for streptokinase expression inhibitor project, luminescence, BacTiterGlo (AID 1915); assay type: functional, organism-based;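 further: potency for reduction of bacterial viability or growth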
# Cytochrome P450 2C9 = Cytochrome P450 2C9 (Homo sapiens, UniProt P11712)
# Cytochrome P450 2C9, sequence (P11712 whole entry): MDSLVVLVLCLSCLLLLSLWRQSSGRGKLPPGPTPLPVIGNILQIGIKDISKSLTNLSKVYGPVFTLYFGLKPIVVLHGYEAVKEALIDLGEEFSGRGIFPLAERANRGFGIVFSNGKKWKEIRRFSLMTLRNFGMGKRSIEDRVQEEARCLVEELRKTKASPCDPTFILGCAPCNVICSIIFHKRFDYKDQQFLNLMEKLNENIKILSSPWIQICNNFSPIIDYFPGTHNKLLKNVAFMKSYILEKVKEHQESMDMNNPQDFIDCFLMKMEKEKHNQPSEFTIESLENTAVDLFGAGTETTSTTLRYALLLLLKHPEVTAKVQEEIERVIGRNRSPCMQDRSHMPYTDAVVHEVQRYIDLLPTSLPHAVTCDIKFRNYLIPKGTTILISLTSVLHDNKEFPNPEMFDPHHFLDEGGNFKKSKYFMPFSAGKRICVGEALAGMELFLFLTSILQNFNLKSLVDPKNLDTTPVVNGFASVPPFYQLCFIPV
# Cytochrome P450 2D6, sequence (P10635 whole entry): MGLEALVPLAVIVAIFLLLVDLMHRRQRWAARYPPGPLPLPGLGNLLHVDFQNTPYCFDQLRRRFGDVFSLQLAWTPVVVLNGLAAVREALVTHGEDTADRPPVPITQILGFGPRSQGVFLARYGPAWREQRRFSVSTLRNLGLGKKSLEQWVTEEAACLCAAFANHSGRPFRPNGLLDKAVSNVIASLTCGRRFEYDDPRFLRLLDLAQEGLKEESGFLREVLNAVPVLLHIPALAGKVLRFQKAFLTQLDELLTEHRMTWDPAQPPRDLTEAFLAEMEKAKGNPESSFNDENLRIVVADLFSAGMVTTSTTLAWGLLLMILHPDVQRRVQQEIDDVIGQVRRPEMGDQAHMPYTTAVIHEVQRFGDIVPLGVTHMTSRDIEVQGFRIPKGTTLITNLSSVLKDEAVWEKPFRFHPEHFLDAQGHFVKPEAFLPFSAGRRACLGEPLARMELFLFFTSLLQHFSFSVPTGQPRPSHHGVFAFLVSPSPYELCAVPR
# Cytochrome P450 3A4, sequence (P08684 whole entry): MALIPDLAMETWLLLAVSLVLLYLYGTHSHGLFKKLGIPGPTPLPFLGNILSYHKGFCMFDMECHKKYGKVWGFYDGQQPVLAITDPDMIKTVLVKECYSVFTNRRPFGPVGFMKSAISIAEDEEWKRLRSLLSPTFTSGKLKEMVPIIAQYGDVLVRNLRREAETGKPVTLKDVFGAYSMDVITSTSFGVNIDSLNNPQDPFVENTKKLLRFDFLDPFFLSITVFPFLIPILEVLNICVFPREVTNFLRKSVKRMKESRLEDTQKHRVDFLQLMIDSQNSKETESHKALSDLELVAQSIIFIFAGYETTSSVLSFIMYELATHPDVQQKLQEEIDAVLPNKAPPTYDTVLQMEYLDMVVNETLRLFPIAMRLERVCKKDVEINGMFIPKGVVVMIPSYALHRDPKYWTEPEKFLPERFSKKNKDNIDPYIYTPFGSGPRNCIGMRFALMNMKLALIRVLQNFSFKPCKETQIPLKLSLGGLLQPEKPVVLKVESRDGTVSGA
# Cytochrome P450 2C19, sequence (P33261 whole entry): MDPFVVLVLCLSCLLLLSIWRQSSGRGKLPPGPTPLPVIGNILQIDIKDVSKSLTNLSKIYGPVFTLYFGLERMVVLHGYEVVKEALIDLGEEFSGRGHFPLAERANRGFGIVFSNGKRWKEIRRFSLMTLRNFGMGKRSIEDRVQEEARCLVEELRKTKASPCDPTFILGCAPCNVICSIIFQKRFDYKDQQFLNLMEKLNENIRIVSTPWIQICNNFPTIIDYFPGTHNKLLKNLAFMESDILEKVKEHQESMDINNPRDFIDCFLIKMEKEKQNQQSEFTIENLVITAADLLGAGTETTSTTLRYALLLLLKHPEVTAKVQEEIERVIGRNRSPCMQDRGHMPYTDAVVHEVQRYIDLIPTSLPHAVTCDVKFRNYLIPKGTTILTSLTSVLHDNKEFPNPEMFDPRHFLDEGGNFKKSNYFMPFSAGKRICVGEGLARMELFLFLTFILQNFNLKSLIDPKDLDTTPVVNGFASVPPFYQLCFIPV
smiles,measurement,setting,value
Cc1noc(C)c1C(=O)N1CCC2(CC1)CCN(C(c1ccccc1)c1ccccc1)CC2,AC50,Cytochrome P450 2D6,25.1 µM (inconclusive)
COc1ccc(C2C(C#N)=C(N)Nc3nc4ccccc4n32)cc1 (stereo not drawn),EC50,[1],12.1 µM (active)
same,EC50,[2],16.7 µM (active)
same,EC50,H4,32.9 µM (active)
CCN1CCN(c2nc3c(c(=O)[nH]c(=O)n3C)n2CCCSc2ncccn2)CC1,AC50,Cytochrome P450 2C19,inconclusive
Clc1ccc2c(N[C@H]3CC[C@H](N4CCCCC4)CC3)ccnc2c1,AC50,Cytochrome P450 2C19,inconclusive
same,AC50,Cytochrome P450 2D6,3.98 µM (inconclusive)
O=C(CSCc1cccc(CSCC(=O)Nc2ccccc2)n1)Nc1ccccc1,EC50,[3],> 150 µM (inactive)
same,EC50,[4],> 38 µM (not active)
COC(=O)[C@@]1(Cc2ccccc2)[C@H]2c3cc(C(=O)N4CCCC4)n(Cc4ccc(C)o4)c3C[C@H]2CN1C(=O)c1ccccc1,AC50,Cytochrome P450 2D6,39.8 µM (inconclusive)
same,AC50,Cytochrome P450 1A2,12.6 µM (inconclusive)
Cc1cc(O)c(C(C)C)cc1CN1CCCCC1,AC50,Cytochrome P450 2D6,3.98 µM (inconclusive)
same,AC50,Cytochrome P450 1A2,1 µM (inconclusive)
Cc1nc(-c2cccc(NC(=O)c3cc4cc(Br)ccc4oc3=O)c2)cs1,AC50,Cytochrome P450 2C19; read-out: AC50,20 µM (inconclusive)
same,AC50,Cytochrome P450 1A2,8.91 µM (inconclusive)
same,AC50,Cytochrome P450 3A4,10 µM (inconclusive)
CC(C)(CNC(=O)c1ccc(Br)o1)CNC(=O)c1ccc(Br)o1,IC50,[5],> 47.1 µM (inactive)
same,EC50,[6],> 53 µM (inactive)
COCCNC(=O)CCn1c(=O)oc2ccccc21,AC50,Cytochrome P450 2C19; read-out: AC50,1.41 µM (inconclusive)
Cc1nc2nc(NC(=O)c3ccco3)nn2c(C)c1Cl,EC50,[1],0.817 µM (active)
same,EC50,[2],14.3 µM (active)
same,EC50,H4,15.5 µM (active)
CCOc1ccccc1NC(=O)CNC(=O)Cc1ccccc1,IC50,[5],> 47.1 µM (inactive)
same,EC50,[6],> 53 µM (inactive)
Cc1cc(S(=O)(=O)NC2CCCCC2)ccc1OCC(=O)NCC1CCCO1 (stereo not drawn),IC50,[5],> 47.1 µM (inactive)
same,EC50,[6],> 53 µM (inactive)
O=C(Nc1ccc2c(c1)OCCO2)c1cc2sccc2n1Cc1ccc(F)cc1,EC50,[1],0.94 µM (active)
same,EC50,[2],3.85 µM (active)
same,EC50,H4,> 120 µM (not active)
COc1ccc(/C=C/c2nc(O)cc(-c3ccccc3)n2)cc1,IC50,[5],> 47.1 µM (inactive)
same,EC50,[6],> 53 µM (inactive)
NS(=O)(=O)c1cccc(NC(S)=NCc2ccc3c(c2)OCO3)c1,EC50,[3],> 160 µM (inactive)
same,EC50,[4],> 38 µM (not active)
O=C(Nc1ccccc1)N1CCCC2(CCN(C(=O)Oc3ccccc3)CC2)C1,AC50,Cytochrome P450 2D6,20 µM (inconclusive)
same,AC50,Cytochrome P450 1A2,25.1 µM (inconclusive)
CC(C)(C)c1ccc(OCC(=O)NNC(=S)NC(=O)c2ccco2)c(Br)c1,EC50,[7],< 0.06 µM (active)
same,EC50,Streptococcus,0.1 µM (active)
CCOC(=O)N1CCN(S(=O)(=O)c2ccc(C)c(C)c2C)CC1,IC50,[5],> 47.1 µM (inactive)
same,EC50,[6],> 53 µM (inactive)
COc1cc(SC)ccc1C(=O)OCC(=O)NC1CC1,EC50,[3],> 150 µM (inactive)
same,EC50,[4],> 38 µM (not active)
COc1ccc(Cc2c(N)nc(N)nc2N)cc1,AC50,Cytochrome P450 2D6,17.8 µM (inconclusive)
O=C(Nc1nnc(S(=O)(=O)N2CCOCC2)s1)c1cccc(F)c1,EC50,[1],17.8 µM (active)
same,EC50,[2],9.48 µM (active)
same,EC50,H4,14.6 µM (active)
COc1cc2c(cc1NC(=O)c1ccc3c(c1)OCO3)oc1ccccc12,EC50,[1],5.37 µM (active)
same,EC50,[2],43.1 µM (active)
same,EC50,H4,85.3 µM (active)
O=C(Nc1ccccc1)C(Cc1ccccc1)NC(=O)C12CC3CC(CC(C3)C1)C2 (stereo not drawn),AC50,Cytochrome P450 2D6,0.00794 µM (inconclusive)
O=C1[C@H]2[C@H]3[C@H](O)[C@H](O)C/C(=N/OCc4ccccc4)[C@@H]3CC[C@@H]2C(=O)N1Cc1ccc2c(c1)OCO2,AC50,Cytochrome P450 2C19; read-out: AC50,3.98 µM (inconclusive)
CC1(O)c2ccccc2C(=O)N1CCc1ccccc1F (stereo not drawn),IC50,[5],> 47.1 µM (inactive)
same,EC50,[6],> 53 µM (inactive)
same,AC50,Cytochrome P450 2D6,28.2 µM (inconclusive)
same,AC50,Cytochrome P450 1A2,20 µM (inconclusive)
O=C(O)CS(=O)(=O)C(c1ccccc1)c1ccccc1,AC50,Cytochrome P450 2C19,inconclusive
COc1cccc(OCc2nc3ccccc3c(=O)n2N)c1,EC50,[3],> 150 µM (inconclusive)
same,EC50,[4],10.1 µM (active)
CCOc1nc(NCc2ccco2)nc(Nc2ccccc2F)n1,EC50,[1],6.54 µM (active)
same,EC50,[2],12.9 µM (active)
same,EC50,H4,69.9 µM (active)
Cc1ccc2occ(/C=C/C(=O)O)c(=O)c2c1,AC50,Cytochrome P450 2C19; read-out: AC50,28.2 µM (inconclusive)
same,AC50,Cytochrome P450 2D6,15.8 µM (inconclusive)
same,AC50,Cytochrome P450 3A4,22.4 µM (inconclusive)
same,AC50,Cytochrome P450 2C9,25.1 µM (inconclusive)
c1ccc(N2CCCC3(CCNCC3)C2)cc1,AC50,Cytochrome P450 2C19; read-out: AC50,15.8 µM (inconclusive)
same,AC50,Cytochrome P450 3A4,25.1 µM (inconclusive)
Cc1ccc(C)c(C(=N)c2ccccc2Cc2ccccc2)c1,AC50,Cytochrome P450 2D6,3.16 µM (inconclusive)
COCCCn1c(SCC(=O)Nc2ccccc2F)nnc1-c1ccoc1C,IC50,[5],> 47.1 µM (inactive)
same,EC50,[6],> 53 µM (inactive)
O=C(NNS(=O)(=O)c1ccc(Cl)cc1)NC1CCCCC1,AC50,Cytochrome P450 2C19; read-out: AC50,10 µM (inconclusive)
same,AC50,Cytochrome P450 2C9,17.8 µM (inconclusive)
CCOC(=O)c1ccc(NC(=O)c2cccc3c2C(=O)N(CC2CCCO2)C3)cc1 (stereo not drawn),IC50,[5],> 47.1 µM (inactive)
same,EC50,[6],> 53 µM (inactive)
Nc1ccc2nc(SCc3ccc([N+](=O)[O-])cc3)sc2c1,EC50,[3],> 150 µM (inactive)
same,EC50,[4],> 38 µM (not active)
CCN1CCN(CC(=O)N2N=CCC2c2ccccc2)CC1 (stereo not drawn),IC50,[5],> 47.1 µM (inactive)
same,EC50,[6],> 53 µM (inactive)
O=C(OCn1nnc2ccccc2c1=O)c1cccnc1,AC50,Cytochrome P450 2C19; read-out: AC50,25.1 µM (inconclusive)
same,AC50,Cytochrome P450 1A2,17.8 µM (inconclusive)
same,AC50,Cytochrome P450 2C9,25.1 µM (inconclusive)
CCC(=O)N1CCn2c1nc1ccccc12,AC50,Cytochrome P450 2C19; read-out: AC50,28.2 µM (inconclusive)
same,AC50,Cytochrome P450 2C9,1.41 µM (inconclusive)
O=C(CC1C(=O)NCCN1C(=O)Nc1ccccc1)Nc1ccc2c(c1)OCO2 (stereo not drawn),IC50,[5],> 47.1 µM (inactive)
same,EC50,[6],> 53 µM (inactive)
CCOC(=O)c1ccccc1OCc1cc(/C=N/n2cnnc2)ccc1OC,EC50,[3],> 150 µM (inactive)
same,EC50,[4],> 38 µM (not active)
same,AC50,Cytochrome P450 1A2,1.26 µM (inconclusive)
FC(F)(F)c1nc2ccccc2nc1N/N=C\c1ccccc1,AC50,Cytochrome P450 2C19; read-out: AC50,39.8 µM (inconclusive)
same,AC50,Cytochrome P450 2D6,14.1 µM (inconclusive)
same,AC50,Cytochrome P450 2C9,20 µM (inconclusive)
O=C(N/N=C/c1ccc(N2CCOCC2)s1)c1ccccc1Cl,EC50,[1],20.9 µM (active)
same,EC50,[2],12 µM (active)
same,EC50,H4,48.6 µM (active)
CCCCc1[nH]nc2c1/C(=N/O)CC(c1ccccc1)C2 (stereo not drawn),AC50,Cytochrome P450 2D6,14.1 µM (inconclusive)
COc1ccccc1CNc1ncnc2ccc(-c3cccc(NS(C)(=O)=O)c3)cc12,AC50,Cytochrome P450 2D6,20 µM (inconclusive)
same,AC50,Cytochrome P450 2C9,0.794 µM (inconclusive)
O=C(CNC(=O)OCc1ccccc1)NCC(=O)N1CCCC1C(=O)OCc1ccccc1 (stereo not drawn) (Cbz-Gly-Gly-[ξP]-OBn),AC50,Cytochrome P450 2C19; read-out: AC50,0.0355 µM (inconclusive)
same,AC50,Cytochrome P450 3A4,17.8 µM (inconclusive)
